Common to all, as to format: cell-based, rat
Experiment [1] deals with DRG-oligodendrocyte co-cultures. Put plainly: DRG-oligodendrocyte co-culture myelination, Western blot for MBP and MAG. The following applies: FIG. 7. An excerpt:
CNS myelination in the presence of NGF and either an Sp35 antagonist (Sp35-DN) or a TrkA antagonist (TrkA-DN) was examined. 3 week old DRG and oligodendrocyte cocultures (prepared as described in Example 3) were infected with lentiviruses, at an MOI of 2 per cell, expressing either full-length or dominant negative Sp35, full-length or dominant negative Nogo Receptor, full-length or dominant negative Taj, full-length or dominant negative p75, and full-length or dominant negative TrkA. Lentiviruses were prepared as described in Example 3 and as follows. Rat p75 full length (FL-p75, amino acid residues 1-425), p75 dominant negative (DN-p75, amino acid residues 1-275), human TrkA full length (FL-TrkA, amino acid residues 1-796), TrkA dominant negative (DN-TrkA, amino acid residues 1-441), human Taj full length (FL-Taj, amino acid residues 1-417), Taj dominant negative (DN-Taj, amino acid residues 1-192), rat Nogo receptor full length (FL-NgR, amino acid residues 1-473), Nogo receptor dominant negative (DN-NgR, amino acid residues 28-310). DNA sequence was inserted into the NotI and BamHI sites of HRST-IRESeGFP lentivirus vector. Plasmids were transfected into 293 cells to produce lentivirus as described in Rubinson et al. Nat. Genetics 33:401-406 (2003).
Co-culture lysates were examined at 3 weeks and analyzed by Western blot as described previously. The blots were probed with polyclonal antibodies to MAG and to MBP. The myelin proteins MAG and MBP were used as markers for myelination.
The TrkA compound antagonist K525a was also tested in DRG-oligodendrocyte cocultures for its ability to promote myelination.
The myelin proteins MAG and MBP were used to determine whether TrkA was upstream of Sp35 in inhibiting myelination in DRG-oligodendrocyte co-cultures. Oligodendrocyte-DRG co-cultures were prepared as described in Example 3. […]
Fresh media was changed every three days. […] Lysates were subjected to 4-20% SDS-PAGE, and analyzed by Western blotting with an antibody to MBP, MAG and Sp35. […]
For orientation: In western blotting, separated proteins are transferred to a membrane and probed.

Experiment [2] relates to Oligodendrocyte/DRG co-cultures. Put plainly: Oligodendrocyte/DRG co-culture myelination, MBP immunofluorescence. The method, then:
Enriched populations of oligodendrocytes were grown from Female Long Evans post-natal day 2 (P2) rats. Briefly, the forebrain was dissected out and placed in Hank's buffered salt solution (HBSS) (Invitrogen, Grand Island, N.Y.). The tissue was cut into 1 mm fragments and incubated at 37° C. for 15 min in 0.01% trypsin and 10 μg/ml DNase. Dissociated cells were plated on poly-L-lysine-coated T75 tissue culture flasks and grown at 37° C. for 10 days in DMEM medium with 20% fetal calf serum (Invitrogen). Oligodendrocyte precursors (A2B5+) were collected by shaking the flask overnight at 200 rpm at 37° C., resulting in a 95% pure population. Cultures were maintained in high glucose DMEM medium containing FGF/PDGF (Peprotech) (10 ng/ml) for 1 week.
DRG cultures were prepared as follows. Embryonic dorsal root ganglia (DRG) neurons were grown in vitro as previously described in Mi et al., Nat. Neurosci. 8:745-51 (2005) and Kleitman et al. “Tissue culture methods for the study of myelination.” Culturing Nerve Cells. Banker and Goslin, eds. Cambridge Mass.: MIT Press, 337-377 (1991). Briefly, dorsal root ganglia, dissected from embryonic day 15 (E15) Long Evans rats, were plated on poly-D-lysine (100 μg/ml)-coated cover slips for 2 weeks and grown in Neurobasal medium supplemented with B27 (Invitrogen) in the presence or absence of 100 ng/ml nerve growth factor (BD Biosciences). To remove proliferating glial cells, the cultures were pulsed twice with fluorodeoxyuridine (20 μM) from days 2-6 and from days 8-10.
Oligodendrocyte-DRG co-cultures were prepared as follows. A2B5+ oligodendrocyte progenitor cells and DRG neuron drop cultures were prepared as above. One day after oligodendrocyte progenitors were added to DRG neurons, co-cultures were infected with lentivirus expressing GFP (control), dominant-negative Sp35 or full length Sp35 at 2 MOI per cell. DNA sequences used for lentiviral construction were, mouse Sp35 full length (FL-Sp35, encoding amino acid residues 34-614), Sp35 dominant negative (DN-Sp35, encoding amino acid residues 34-581). DNA sequences were inserted into the NotI and BamHI sites of HRST-IRESeGFP lentivirus vector. Plasmids were transfected into 293FT cells to produce lentivirus as described in Rubinson et al. Nat. Genetics 33:401-406 (2003).
Oligodendrocyte/DRG co-cultures were prepared as described in Example 3. The co-cultures were treated with increasing concentrations of Sp35-Fc or control-Fc for 3 weeks. Monoclonal antibodies against MBP were used to determine MBP protein concentration and for immunofluorescence experiments (Sternberger Monoclonals). […]

Experiment [3] has as its system Sp35. Nature of the experiment: RT-PCR for Sp35 in purified DRGs with or without NGF. The following applies: 100 ng/ml NGF for 24 hours; FIG. 9A. Here is the method: RT-PCR for TrkA, Sp35 and GAPDH was performed on purified OPCs, SCs and DRGs in the presence or absence of NGF or BDNF as follows. Cultures of OPCs, SCs and DRGs were prepared as described above. Wells of the tissue culture dishes were treated with either 100 ng/ml of NGF or 100 ng/ml of BDNF for 24 hours prior to mRNA isolation. Cellular mRNA was extracted using the Absolutely RNA miniprep kit (Stratagene). Equal amounts of mRNA were subjected to RT-PCR. The primer sets used for the PCR reactions are as follows: […]

The test system of experiment [4] is Sp35. Put plainly: Sp35 expression in co-cultures, DRG neuronal and oligodendrocyte cultures treated with NGF. The method, then:
Oligodendrocyte—DRG co-cultures were prepared as described previously. Various concentrations of NGF (0, 10, 50 and 100 ng/ml) were added to oligodendrocyte—DRG co-cultures, DRG neuronal cultures and oligodendrocyte cultures. In all cultures expression of Sp35 and phosphorylated TrkA was examined by […] or immuno-histochemical staining.

As for `COC(=O)[C@@]1(O)C[C@H]2O[C@]1(C)n1c3ccccc3c3c4c(c5c6ccccc6n2c5c31)C(=O)NC4` [K525a], the “myelination, as measured by the presence of MBP” value in experiment [1] (concentration 1 nM) and in experiment [1] (concentration 3 nM) was “promoted myelination” in each case.

As for “NGF: Nerve Growth Factor, the TrkA ligand”, the myelination in co-culture entry in experiment [2] (in the presence of NGF) is on record as “inhibited”. In addition, the “Sp35 mRNA in DRGs” value in the experiment on Sp35 [3] is “induction”. For the same molecule, the “Sp35 in DRG neurons by immunofluorescence” value with Sp35 [4] (100 ng/ml of NGF, FIG. 10) is “Upregulation”. For the same molecule, in the experiment with Sp35 [4] (NGF 0, 10, 50 and 100 ng/ml, FIG. 8), the “Sp35 expression in oligodendrocyte/DRG cocultures” value was “increased”. Further, the “Sp35 expression in cultured oligodendrocytes” value in the experiment on Sp35 [4] (NGF 0, 10, 50 and 100 ng/ml, FIG. 9) is listed as “remained constant”.

B1: Sp35-Fc: extra-cellular portion of human Sp35 (residues 1-532) fused to the hinge and Fc region of human IgG1 (protein)
chain: TGCPPRCECSAQDRAVLCHRKRFVAVPEGIPTETRLLDLGKNRIKTLNQDEFASFPHLEELELNENIVSAVEPGAFNNLFNLRTLGLRSNRLKLIPLGVFTGLSNLTKLDISENKIVILLDYMFQDLYNLKSLEVGDNDLVYISHRAFSGLNSLEQLTLEKCNLTSIPTEALSHLHGLIVLRLRHLNINAIRDYSFKRLYRLKVLEISHWPYLDTMTPNCLYGLNLTSLSITHCNLTAVPYLAVRHLVYLRFLNLSYNPISTIEGSMLHELLRLQEIQLVGGQLAVVEPYAFRGLNYLRVLNVSGNQLTTLEESVFHSVGNLETLILDSNPLACDCRLLWVFRRRWRLNFNRQQPTCATPEFVQGKEFKDFPDVLLPNYFTCRRARIRDRKAQQVFVDEGHTVQFVCRADGDPPPAILWLSPRKHLVSAKSNGRLTVFPDGTLEVRYAQVQDNGTYLCIAANAGGNDSMPAHLHVRSYSPDWPHQPNKTFAFISNQPGE
modifications: left off: a dimerising Fc or GST
notes: extra-cellular portion of human Sp35 (residues 1-532) fused to the hinge and Fc region of human IgG1
B1: the “MBP positive oligodendrocytes and myelin internodes” value in experiment [2] (100 ng/ml NGF, 14 days, compared to controls, FIG. 13) is on record as “enhancement”. Further, the “number of MBP+ oligodendrocytes” value in experiment [2] (co-culture in the presence of NGF, treated 3 weeks, vs control-Fc, FIG. 5) is “increased”. Moreover, the “number of MBP+ cells, dependence on concentration” value in experiment [2] (increasing concentrations of Sp35-Fc, 3 weeks, NGF present, FIG. 5C) is on record as “increased as the concentration of the Sp35 antagonist increased”. In experiment [1] (Sp35-Fc as comparator for K525a), the “myelination, as measured by the presence of MBP” value is “promoted myelination”.

The values are drawn from patent US8642040B2, “Methods for promoting myelination, neuronal survival and oligodendrocyte differentiation via administration of Sp35 or TrkA antagonists” (Biogen Idec MA Inc., priority 2006, dated 2014).
